# Reference: a melting point compilation (Tetko et al.; mined from patent text by program, amines drawn as free bases though some values may be those of a salt)
row,Structure (SMILES),melting point
1,Cc1cc(OCCNC(=O)C2Cc3ccccc3N2S(=O)(=O)c2ccc(-c3cccc(C(F)(F)F)c3)cc2)ccc1CC(=O)O (stereo not drawn),87 to 90 °C
2,O=C(Cc1cccc2ccccc12)N(O)[C@H](CN1CCCC1)c1ccccc1,81 to 83.5 °C
3,COc1cccc(-c2nc(N)nc(Nc3cccc([N+](=O)[O-])c3)n2)c1,197 °C
4,ClCCOc1ccc2c(c1)oc1cc(Cl)ccc12,105 to 107 °C
5,CS(=O)(=O)c1ccc(-c2cnn(-c3ccc(F)c(F)c3)c(=O)c2Cc2ccc(F)cc2)cc1,157 to 159 °C
6,COc1nc(C)nc(NC(=O)NS(=O)(=O)OCC(Cl)(Cl)Cl)n1,128 °C
7,COC(=O)Cc1cn(C)nc1O,118 to 119 °C
8,Cc1ccc(S(=O)(=O)OCC2Cc3cccc(-c4ccc(Cl)cc4)c3O2)cc1 (stereo not drawn),130 to 133 °C
9,CCOC(=O)c1ccc(NCCCc2ccc(OCc3ccccc3)cc2)cc1,98 to 107 °C
10,CC(CO)c1ccc(-c2ccc(F)cc2F)c(F)c1 (stereo not drawn),58 to 59 °C
11,COc1cc(OC)cc(-c2ncoc2-c2cc(N)c(OC)cc2O)c1,122 to 123 °C
12,NC(=O)N1CCCN(NC(=O)OCc2ccccc2)C1=O,136 °C
13,CCCC(NC=O)C1(c2ccc(Cl)cc2)CCC1 (stereo not drawn),97.5 to 98.5 °C
14,CCOC(=O)c1cnc2c(c1)C(=O)C=CC2=O,124 °C
15,COC[C@H]1CCCN1C(=O)c1ccc(-c2[nH]nc3c2C(=O)c2c(NC(=O)NN4CCOCC4)cccc2-3)s1,262 °C
16,COc1ccc(C(=O)Nc2cnc3c(c2)CN(Cc2ccccc2)CC3)cc1Br,214 to 215 °C
17,CC(C)NC(=O)c1c(NC(=O)c2cc(C(F)(F)F)nn2-c2ncccc2Cl)c(Br)cc2cn[nH]c12,189 to 190 °C
18,CCOCOC1CCC2(C)C(C1)C(=O)CC1C2CCC2(C)C1CC1OC3(CCC(C)CO3)C(C)C12 (stereo not drawn),191 to 193 °C
19,CCC(=O)c1ccc(OCCOC)cc1,31 to 35 °C
20,CC(C)c1nn(-c2ccc3ccccc3n2)c(-c2ccc(F)cc2)c1Br,110 to 114 °C
21,Brc1ccc(N=NSc2ccccc2)c2ccccc12,57 to 58 °C
22,CN1CCC(Nc2ccc([N+](=O)[O-])cc2)CC1,153 to 155 °C
23,CN(C)CCNC1=CC(=O)c2oc(-c3cc(F)ccc3F)nc2C1=O,181 to 182 °C
24,C=CCn1c(NCC)nc(N2CCc3ccccc3CC2)c(C#N)c1=O,172 to 177 °C
25,N#CSc1ccc(N)c(F)c1,36 to 38 °C

row,Structure (SMILES),melting point
1,CCOC(=O)Cc1coc2c(OC)ccc(C(=O)Cc3ccncc3)c12,111 to 117 °C
2,CC(C)c1nn(-c2ccc(C(F)(F)F)cc2)cc1C=O,81 to 82 °C
3,Cc1ccc(-c2ccc(-c3ccc(C)cc3)n2-c2ccc(O)cc2)cc1,221 to 222 °C
4,Cc1oc(-c2ccccc2)nc1COc1cccc(CSc2cccc(CCC(=O)O)c2)c1,120 to 121 °C
5,C#CCOc1cccc(NC(=O)c2ccccc2C)c1,93 to 95 °C
6,CCCCC1=C(c2ccc(F)cc2)C(=NO)CC1,115 to 116 °C
7,COC(=O)[C@@H]1CN(C#N)C[C@H]1c1ccc(OC)c(OC2CCCC2)c1 (relative stereo),78 to 80 °C
8,CCC(c1ccccc1)c1c(O)c2c(oc1=O)CCC2 (stereo not drawn),183 to 186 °C
9,C[C@H](N=Cc1ccc(OCc2ccccc2F)cc1)C(N)=O,121 °C
10,O=C1NCCN1CCN1CC=C(c2cn(-c3ccc(F)cc3)c3ccc(C(F)(F)F)cc23)CC1,200 °C
11,CCOC(=O)c1cc(-c2ccncc2)[nH]c1N,193 to 195 °C
12,CCN(C1CC(C)(C)Oc2ccc(OCCCCC(=O)NCCO)cc21)S(C)(=O)=O (stereo not drawn),88 to 90 °C
13,CCOP(=O)(/C=C/c1cn(-c2ccccc2)nc1OCc1ccc(OCc2nc(-c3ccc(OC)c(C(=O)O)c3)oc2C)c(OC)c1)OCC,171 to 172 °C
14,O=C(O)C(CSc1ccccc1)CS(=O)(=O)c1ccc(-c2ccc(Cl)cc2)cc1 (stereo not drawn),158 to 162 °C
15,CC(=O)NC(C)Cc1ccccc1 (stereo not drawn),91 to 93 °C
16,COc1cc(CC(C#N)=CNc2ccccc2)c2c(c1OC)OC(C1CC1)C=C2 (racemic),140 °C
17,Cc1ncsc1C(C)(O)c1ccoc1 (stereo not drawn),102 to 104 °C
18,CC(C)(C)OC(=O)NCC(=O)OCCCNc1cccc2c1C(=O)c1ccccc1C2=O,84 °C
19,CCOC(=O)Cc1ccc(-c2nc(COc3ccc(COc4nn(-c5ccccc5)cc4/C=C/c4coc(CC)n4)cc3OC)c(C)o2)cc1,155 to 157 °C
20,Cc1cc(=O)n(C)c2c(C)cc(C(O)(C(F)(F)F)C(F)(F)F)cc12,241 to 243 °C
21,CCCCCCCCCCCC(=O)c1c(-c2ccccc2)[nH]n(-c2ccccc2)c1=O,69 °C
22,CCCc1nc(Nc2ccc3cn[nH]c3c2)nc(NC2CCN(S(C)(=O)=O)CC2)n1,219 to 221 °C
23,N#Cc1c(-c2ccc(C(F)(F)F)cc2)n(O)c2ccccc12,202 to 203 °C
24,Cc1sc2c(c1Br)C(=O)N(CCCCCl)CCC2,78 to 80 °C
25,CCCCOc1cc(CCS(=O)(=O)NC(=O)OCC(C)(C)C)n(Cc2ccc(Cl)cc2Cl)n1,116 to 118 °C

row,Structure (SMILES),melting point
1,CCOC(CC)=C1SC(=S)N(c2ccccc2)C1=O,178 to 181 °C
2,Fc1ccc(-n2ncc3c2-c2ccccc2C3)cc1,104 to 105 °C
3,CCc1c(C)n(C)c(=O)n(-c2cc(OC(C)C)c(Cl)cc2F)c1=O,124 to 125 °C
4,COc1cccc2c1C[C@H]1C[C@@H](CCN3CCC(O)(c4ccc(Cl)cc4)CC3)CN(C)[C@@H]1C2,212 to 215 °C
5,OCC(O)Cc1c(Cl)cc2c(c1OCc1ccccc1)CCC2 (stereo not drawn),101 to 104 °C
6,CON(C)C(=O)c1cc2sc(C)c(N(C)S(=O)(=O)c3cccs3)c2[nH]1,187 °C
7,Nc1c(-c2ccc(-c3ccc(F)cc3)cc2)nc2ccc(Cl)cc2c1C(=O)O,255 to 257 °C
8,CCOC(=O)C1=C(C)NC(C=NN)=C(C(=O)OCC)C1c1ccccc1Cl (stereo not drawn),107 to 110 °C
9,CC(=O)OC1CSC(Oc2cncc(-c3ccsc3)c2)C(OC(C)=O)C1OC(C)=O (stereo not drawn),175 °C
10,CC(C)OC(=O)c1cc(-n2c(=O)[nH]c(C(F)(F)F)c(F)c2=O)c(F)cc1Cl,102 to 106 °C
11,CCOc1ccc(-c2ccc3c(c2)C=C(C(=O)Nc2ccc(CN(C)C4CCC5(CC4)OCCO5)cc2)CCS3(=O)=O)cc1,220 to 223 °C
12,C[C@H](NC(=O)c1c[nH]c2ncc(-c3cn(-c4cc(C(F)(F)F)ccc4F)cn3)nc12)C(C)(C)C,> 300 °C
13,O=C(O)c1cc2cc(Cl)ccc2[nH]c1=O,> 310 °C
14,CCCCOc1ccc(CCCCCC(=O)O)cc1,39 to 40 °C
15,O=C1CCn2c(Cc3ccc(Cl)cc3)nc3c(Cl)ccc1c32,167 °C
16,CCN(CC)c1ccnc2sc(C(N)=O)c(N)c12,127 to 129 °C
17,Cc1ccc(S(=O)(=O)N2CCC(c3ccc4c(c3)C(=O)CCCC4)CC2)cc1,165 to 169 °C
18,COC(=O)C[C@H]1N=C(c2ccccc2Cl)c2cc(Cl)ccc2NC1=O,168 to 170 °C
19,COC(=O)CN1CCCN(c2ccc(-c3ccc(C#N)cc3)cc2)C1=O,145 to 150 °C
20,O=S(=O)(CCc1ccccc1)CCc1ccccc1,98 to 99 °C
21,COc1ccc(C2=NN(C3CCN(S(=O)(=O)c4ccccc4OC(F)(F)F)CC3)C(=O)C(C)(C)C2)cc1OC,143 to 144 °C
22,COc1cc(N)c(Cl)cc1C(=O)NCC1CCN(CCCCCCC(=O)c2ccc(Cl)cc2)CC1,137 to 138 °C
23,CCOc1ccccc1Nc1nc(Nc2cc3c(cc2OC)CCN(CC(=O)N(C)C)CC3)ncc1Cl,60 to 79 °C
24,FC(F)(F)c1nnc2c3cc4c(cc3ccn12)OCO4,187 to 189 °C
25,O=C(O)C(CCc1ccccc1)Oc1ccc(-c2ccc(-c3c(Cc4ccccc4)oc4ccccc34)cc2)cc1 (stereo not drawn),152 to 154 °C

row,Structure (SMILES),melting point
1,Nc1ccc(C(=O)N2Cc3ccccc3Sc3ccccc32)cc1,52 to 55 °C
2,CNC(=O)OCc1cnc2c(NC(=O)c3c(Cl)cccc3Cl)cccc2c1-n1ccnc1,240 to 242 °C
3,CC1CN=C(c2cccs2)NO1 (stereo not drawn),70 to 72 °C
4,CNC1(C)CN(c2nc3c(cc2F)c(=O)c(C(=O)O)cn3C2CC2)C1,283 to 286 °C
5,COC(=O)CCc1ccc(-n2cnn(CCC3CCN(C(=O)OC(C)(C)C)CC3)c2=O)cc1,139 to 141 °C
6,CN(C)c1ccc(-c2cccc(-c3ccnc4c(C(=O)c5cccs5)cnn34)c2)cc1,200 to 202 °C
7,COc1ccc(C2=NN(c3nc(C)ccc3C(F)(F)F)C(=O)C3CC=CCC23)cc1Cl (stereo not drawn),156 to 157 °C
8,COc1ccc(-c2ncc(-c3cnc(-c4ccccc4)[nH]3)cn2)cc1OC,231 °C
9,CCc1cc2c(c(Cl)cc(=O)n2Cc2ccc(C(=O)O)cc2)c(CC)n1,250 to 253 °C
10,CC(=O)N1CCC(Oc2ccc([N+](=O)[O-])cc2)(c2ccccc2)CC1,145 to 150 °C
11,COC(=S)NC(=O)c1ccccc1-c1ccc(C)cc1,149 to 150 °C
12,CCN1CCN(c2ccc(NC(=O)Nc3ccc(Oc4cc(Cl)ncn4)cc3)cc2OC)CC1,170 to 171 °C
13,CC(C)(C)NC(=O)[C@@H]1CSCN1C(=O)OCc1ccccc1,96 to 98 °C
14,O=C1NC(CO)Cc2c[nH]c3cccc1c23 (stereo not drawn),186 to 187 °C
15,CCOC(=O)C(C#N)=CNc1ccc(-c2ccccc2)cn1,119 to 126 °C
16,Oc1ccc(Nc2cc(-c3ccccc3)[nH]n2)cc1,215 to 217 °C
17,CC(=O)N[C@@H]1CCCC[C@H]1OCC(=O)O (relative stereo),141 to 143 °C
18,CCCCCCC1CCC(c2ccc(C(=O)CC(C)=O)cc2)CC1 (stereo not drawn),74 °C
19,O=C(Nc1ccc(-n2nc(C(F)(F)F)cc2C(F)(F)F)cc1)Nc1cccc([N+](=O)[O-])c1,203 to 204 °C
20,CC(C)(C)c1ccc(/C=N/OCCCOc2ccc(C(=O)O)c(NC(=O)c3ccc4ccccc4c3)c2)cc1,156 to 158 °C
21,NCCc1ccc(OCCC(=O)O)cc1,216 °C
22,Cc1nnc(-c2ccc3occ(-c4cnn(Cc5ccccc5C#N)c4)c3c2)o1,192 to 193 °C
23,O=C1CCCc2c1ccc(OCc1ccccc1)c2Cl,99 to 100 °C
